Results published in publication PMC10760840, “Synthesis of new imine-/amine-bearing imidazo[1,2-a]pyrimidine derivatives and screening of their cytotoxic activity” (Turkish Journal of Chemistry, 2023).
pIC50: −log10 of the molar value.

Key:
[1] = system: HUVEC cells; test: Sulforhodamine B (SRB) cytotoxicity assay, HUVEC healthy cells; type: cell-based; settings: Homo sapiens, 48 h
Description: (§1) MCF-7 (human breast cancer) and HUVEC (human umbilical vein endothelial) cell lines were cultured and maintained in high glucose Dulbecco’s modified Eagle medium supplemented with 10% FBS (Gibco Life Technologies, Grand Island, NY, USA), 100 U/mL penicillin, and […]. The MDA–MB-231 (human breast cancer) cell line was cultured in Roswell Park Memorial Institute 1640 (RPMI 1640) medium supplemented with 10% FBS (Gibco Life Technologies), 100 U/mL penicillin, and […]. All cells were passaged by trypsin EDTA when they reached 60%–70% confluence. The cells were cultivated at 37 °C in humidified air containing 5% CO2.
The antiproliferative effects of compounds on breast cancer cells were determined by the sulforhodamine B (SRB) assay. In short, cells were seeded in a 96-well cell culture plate at a density of 5 × 10^4 cells/mL and the plate was incubated for 24 h in a CO2 incubator at 37 °C. MCF-7, MDA–MB-231, and HUVEC cells were cultured for 48 h with escalating doses (1, 5, 10, 25, 50, and 100 μM) of the derivatives for determination of the IC50 values. […] The wells were incubated in 10 mM of the tris-base solution (pH 10.5) for 10 min on a shaker and absorbance values were measured at 565 nm with a microplate reader (Tecan Infinite® 200 PRO, Switzerland). The IC50 values of the compounds were recorded using the software GraphPad Prism 5.

[2] = system: MCF-7 cells; test: Sulforhodamine B (SRB) antiproliferative assay, MCF-7; type: cell-based, human; settings: for pIC50: Homo sapiens, MCF7, 48 h, SRB; for pIC50 / inhibition on cell proliferation: MCF-7 cells; for inhibition on cell proliferation: 100 μM dose, SRB screening; for Selectivity index (SI): MCF-7 relative to healthy HUVEC cells
Description: as §1
(§2) The antiproliferative effects of compounds on breast cancer cells were determined by the sulforhodamine B (SRB) assay. In short, cells were seeded in a 96-well cell culture plate at a density of 5 × 10^4 cells/mL and the plate was incubated for 24 h in a CO2 incubator at 37 °C. MCF-7, MDA–MB-231, and HUVEC cells were cultured for 48 h with escalating doses (1, 5, 10, 25, 50, and 100 μM) of the derivatives for determination of the IC50 values. After incubation, the medium was removed from the wells and each well was incubated with a 10% trichloroacetic acid (TCA) solution for fixation at +4 °C for 1 h. The wells were washed five times with distilled water (dH2O) to get rid of the TCA and the plate was left to dry. Fresh 0.04 (m/V) SRB dye solution was added to each well, followed by incubation for 30 min at room temperature. The plate was then dried using an air dryer after being washed four times with 1% acetic acid solution. The wells were incubated in 10 mM of the tris-base solution (pH 10.5) for 10 min on a shaker and absorbance values were measured at 565 nm with a microplate reader (Tecan Infinite® 200 PRO, Switzerland). The IC50 values of the compounds were recorded using the software GraphPad Prism 5.

[3] = system: Bax/Bcl-2 genes; test: Bax/Bcl-2 mRNA expression by qPCR in MDA–MB-231 cells; type: cell-based, human
Description: The mRNA levels of the Bax and Bcl-2 genes were analyzed using a qPCR protocol, following the procedure described previously. Briefly, total RNA was extracted from MDA–MB-231 cells using the Total® RNA Purification Plus Kit, following the manufacturer’s instructions (Norgen Biotek, Thorold, ON, Canada). Subsequently, synthesis of cDNA was carried out using the high-capacity cDNA reverse transcription kit (Applied Biosystems, Foster City, CA, USA). The diluted cDNA samples were combined with specific Taqman probes and Taqman PCR Master Mix, and the amplification was recorded using Applied Biosystems 7500 Real-Time PCR systems (Applied Biosystems, Thermo Fisher Scientific) for qPCR. Changes in mRNA expression levels were determined using the comparative ΔΔCT method, with β-actin serving as an endogenous control for the qPCR analysis.

[4] = system: MDA–MB-231 cells; test: Sulforhodamine B (SRB) antiproliferative assay, MDA–MB-231; type: cell-based, human; settings: for pIC50: Homo sapiens, 48 h, SRB; for pIC50 / inhibition on cell proliferation: MDA–MB-231 cells; for inhibition on cell proliferation: 100 μM dose, SRB screening; for Selectivity index (SI): MDA–MB-231 relative to healthy HUVEC cells
Description: as §1, §2

COc1ccc(N=Cc2cn3cccnc3n2)cc1 [3c, N-(4-Methoxyphenyl)-1-(imidazo[1,2-a]pyrimidin-2-yl)methanimine]
melting point: 191 to 192 °C

CCN(CC)c1ccc(/N=C/c2cn3cccnc3n2)cc1 [3d, N-(4-(N^ı,N^ı-Diethylamino)phenyl)-1-(imidazo[1,2-a]pyrimidin-2-yl)methanimine]
pIC50 [1]: 4.15 | pIC50 [2]: 4.36 | inhibition on cell proliferation [2]: greatest inhibition | Selectivity index (SI) [2]: 1.6 | melting point: 182 to 183 °C | Bax/Bcl-2 ratio (mRNA expression level) ([3]; IC50 dose (4d: 35.1 μM)): did not have significant effects | Bax/Bcl-2 ratio (mRNA expression level) ([3]; IC50 × 2 dose (4d: 70.2 μM)): did not have significant effects | pIC50 [4]: 4.44 | inhibition on cell proliferation [4]: greatest inhibition | Selectivity index (SI) [4]: 2.0

FC(F)(F)c1ccc(N=Cc2cn3cccnc3n2)cc1 [3e, N-(4-Trifluoromethylphenyl)-1-(imidazo[1,2-a]pyrimidin-2-yl)methanimine]
melting point: 224 to 226 °C

c1ccc(NCc2cn3cccnc3n2)cc1 [4a, N-(Phenyl)-1-(imidazo[1,2-a]pyrimidin-2-yl)methanamine]
melting point: 194 to 197 °C

c1ccc2c(NCc3cn4cccnc4n3)cccc2c1 [4b, N-(Naphthalen-1-yl)-1-(imidazo[1,2-a]pyrimidin-2-yl)methanamine]
melting point: 217 to 219 °C

COc1ccc(NCc2cn3cccnc3n2)cc1 [4c, N-(4-Methoxyphenyl)-1-(imidazo[1,2-a]pyrimidin-2-yl)methanamine]
melting point: 175 to 176 °C

CCN(CC)c1ccc(NCc2cn3cccnc3n2)cc1 [4d, N-(4-(N^ı,N^ı-Diethylamino)phenyl)-1-(imidazo[1,2-a]pyrimidin-2-yl)methanamine]
pIC50 [1]: 4.24 | pIC50 [2]: 4.41 | inhibition on cell proliferation [2]: greatest inhibition | Selectivity index (SI) [2]: 1.5 | melting point: 146 to 148 °C | Bax/Bcl-2 ratio (mRNA expression level) ([3]; IC50 dose (4d: 35.1 μM)): 1.5 fold | Bax/Bcl-2 ratio (mRNA expression level) ([3]; IC50 × 2 dose (4d: 70.2 μM)): 1.8 fold | pIC50 [4]: 4.45 | inhibition on cell proliferation [4]: greatest inhibition | Selectivity index (SI) [4]: 1.6

FC(F)(F)c1ccc(NCc2cn3cccnc3n2)cc1 [4e, N-(4-Trifluoromethylphenyl)-1-(imidazo[1,2-a]pyrimidin-2-yl)methanamine]
melting point: 217 to 218 °C
